≈ marks a conversion by molar mass, not a printed value.
conditions: buffer; pH 7.4; 200.0 µM

Row | SMILES | solubility kinetic [µg/mL]
1 | Fc1ccccc1-c1nc(NC2CCCC2)c2ccccc2n1 | 11.1 (≈ 36.1 µM)
2 | O=S(=O)(c1ccccc1)c1ccc(N2CCCCCC2)cc1 | < 0.7
3 | Cc1c(OCC(F)(F)F)ccnc1CS(=O)c1nc2ccccc2[nH]1 (stereo not given) | > 55.4
4 | COc1ccc(CCNc2nc(-c3ccc(O)cc3)cs2)cc1OC | 29.2 (≈ 81.9 µM)
5 | COC(=O)c1sc(SC)c(-c2ccon2)c1C | < 0.6
6 | CC(OC(=O)CN1C(=O)C2C3C=CC(C4CC34)C2C1=O)C(=O)c1ccccc1 (stereo not given) | > 56.9
7 | Cc1cc(O)c(C(=O)Nc2cccc(Cl)c2)c(=O)n1C | < 0.3
8 | O=C(COc1ccccc1)Nc1ccc(F)cc1 | > 36.8
9 | CCC(Oc1ccccc1)C(=O)Nc1ccccc1N1CCCC1 (stereo not given) | 7.9 (≈ 24.4 µM)
10 | O=C(CCS(=O)(=O)Cc1ccccc1)NCCc1ccccc1 | 11.9 (≈ 35.9 µM)
11 | O=C(Nc1cc(Cl)ccc1Cl)C1CCCO1 (stereo not given) | 28.9 (≈ 111 µM)
12 | CC1=C(C)CC(C(=O)NCc2ccccn2)C(C(=O)O)C1 (stereo not given) | > 43.3
13 | C/C(N)=C(/C#N)C(=O)COC(=O)Cc1coc2cc(C)ccc12 | 10.2 (≈ 32.7 µM)
14 | CCCc1c(C)nn(-c2ncccc2[N+](=O)[O-])c1C | > 39
15 | COc1ccc(S(=O)(=O)Nc2ncccc2C)c2ccccc12 | 37.6 (≈ 114 µM)
16 | Cc1cc(=O)n(Cc2ccccc2)c2c(C)cccc12 | < 0.6
17 | CCc1ccc(Nc2nc(C)cc(C)n2)cc1.Cl | 18.4
18 | O=[N+]([O-])c1ccccc1S(=O)(=O)N(CC1CO1)c1ccccc1 (stereo not given) | > 50.2
19 | CCOC(=O)c1ccccc1NC(=O)Cc1ccc(S(=O)(=O)N2CCCC2)s1 | 17.5 (≈ 41.4 µM)
20 | CN1C2CCC1CC(NC(=O)c1cc(Cl)cc3[nH]cnc13)C2 (stereo not given) | 40.7 (≈ 128 µM)

Row | SMILES | solubility kinetic [µg/mL]
21 | CCNC(=O)C12CCC(C)(C(=O)O1)C2(C)C (stereo not given) | 31.8 (≈ 141 µM)
22 | c1ccc(CCNc2cnccn2)cc1 | > 29.9
23 | CCOc1ccc(S(=O)(=O)N(CC)CC)cc1N | > 40.9
24 | O=C1CCC(=O)N1OCCOc1ccc(Cl)c2ccccc12 | 5.3 (≈ 16.6 µM)
25 | COc1ccccc1-n1c(-c2ccc(F)cc2)coc1=O | 2.9 (≈ 10.2 µM)
26 | CCN(CC)C(=S)Oc1c(Cl)cccc1Cl | 2.2 (≈ 7.91 µM)
27 | COc1ccccc1N=C1SCC(=O)N1Cc1ccco1 | 35.8 (≈ 118 µM)
28 | Cc1ccccc1NC(=O)CSC(=O)c1ccccc1 | 12.5 (≈ 43.8 µM)
29 | Nc1cccc(-c2nc3ncccc3o2)c1 | > 31.7
30 | O=C(Cc1ccc(F)cc1)NCC1CCCO1 (stereo not given) | > 35.6
31 | COC(=O)c1ccsc1-n1cc(C#N)c(=O)n(C)c1=O | > 43.7
32 | CC(=O)c1c(C)[nH]c(C(=O)OCC(=O)Nc2ccc3c(c2)OCCO3)c1C | 3.8 (≈ 10.2 µM)
33 | CN=C1S/C(=C\c2ccc(O)c(Br)c2)C(=O)N1C | 16.7 (≈ 51 µM)
34 | Cc1cc(NC(=O)CSc2ccccn2)no1 | > 37.4
35 | CCOC(=O)c1cnc2c(C)cccc2c1Nc1cccc(C(=O)O)c1.Cl | > 58
36 | CC1C(=O)Nc2ccccc2N1C(=O)c1ccc(F)cc1F (stereo not given) | > 45.3
37 | C=CCNC(=O)c1cc2sccc2n1C | > 33
38 | CC(=O)Nc1ccc(NC(=S)NC(=O)/C=C/c2ccco2)cc1 | 32.3 (≈ 98.1 µM)
39 | O=C1CN(C(=O)c2ccccc2Cl)c2ccccc2N1 | > 43
40 | CCCC(=O)Nc1cc2c3c(c1)CCN3C(=O)CC2 | > 38.7

Row | SMILES | solubility kinetic [µg/mL]
41 | O=C(O/N=C1\CCS(=O)(=O)c2sccc21)C1CC1 | > 42.8
42 | CC1(c2ccc(Cl)cc2)NC(=O)N(CN2CCOCC2)C1=O (stereo not given) | > 48.6
43 | CN(CC(=O)NC1CCCCCC1)S(=O)(=O)c1cnc[nH]1 | > 47.2
44 | N#CC(C#N)=CNc1cccnc1 | > 25.5
45 | COCCn1c(N2CCCC2)nc2c1c(=O)[nH]c(=O)n2C | > 44
46 | COC(=O)C(NC(C)=O)(Nc1cccc(C)n1)C(F)(F)F (stereo not given) | > 45.8
47 | O=C(NC1CCN(Cc2ccc(Cl)c(Cl)c2)CC1)c1ccccc1 | 1.9 (≈ 5.23 µM)
48 | Cc1ccc(C)c(Cn2c(=O)n(C)c(=O)c3sccc32)c1 | 0.4 (≈ 1.33 µM)
49 | COc1cc(/C=C(\C#N)C(=O)NC(C)C)cc(Cl)c1O | 28.4 (≈ 96.4 µM)
50 | CC1CC(C)CN(C(=O)CCn2c(=O)oc3ccccc32)C1 (stereo not given) | > 45.4
51 | COc1ccc(S(=O)(=O)N2CCOCC2)cc1NC(=O)C1CC1 | > 51.1
52 | Cc1ccc(/C=C(\C#N)C(=O)Nc2cccc(C)n2)cc1 | < 0.2
53 | CN1CC(C(=O)c2ccc(Cl)cc2)C(c2ccccc2F)C1 (stereo not given) | > 47.7
54 | Cc1cccc(N2CC(C(=O)NC3CCCCCC3)CC2=O)c1C (stereo not given) | > 49.3
55 | CSc1ncnc2sc(C)c(C)c12 | 1.3 (≈ 6.18 µM)
56 | COC(=O)c1ccccc1NC(=O)Nc1cc(C(C)(C)C)on1 | 16.1 (≈ 50.7 µM)
57 | Cc1ccc(NC(=O)C[n+]2cc(-c3ccccc3)n3c2CCC3)c(C)c1.[Cl-] | 55.4
58 | CCOC(=O)CN(C#N)c1nc(N(C)C)nc(N(C)C)n1 | 17.8 (≈ 60.7 µM)
59 | CCOc1ccc(N2C(=O)Cc3ccccc3C2=O)cc1 | 26.9 (≈ 95.6 µM)
60 | O=C(Nc1c[nH]c(=O)[nH]c1=O)c1cc([N+](=O)[O-])cc([N+](=O)[O-])c1 | 16.7 (≈ 52 µM)

Source: PubChem BioAssay AID1996
